Data from PubChem BioAssay AID1259411 (Chemical Carcinogenesis Research Information System (CCRIS), 2018).
Active and inactive are the calls of the source. How the calls were made is not given here.

System: rodent carcinogenicity bioassays, tumor incidence
Assay: CCRIS carcinogenicity studies
How it was run: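 Archive of carcinogenicity, mutagenicity, tumor promotion and tumor inhibition results drawn from journals, NCI reports and other sources, expert-reviewed; covers 1985-2011 and is no longer updated.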

**Q.** How did the carcinogen call (Species: MOUSE, Strain/Sex: B6C3F1/MALE, Route: INTRAPERITONEAL, Dose: 0, 0.0025, 0.01, 0.03 UMOL/G IN 10 µL/G TRIOCTANOIN D 12 OF AGE (STUDY DURATION: 10 MO), Dose: 0, 0.0025, 0.01, 0.03 UMOL/G IN 10 µL/G TRIOCTANOIN D 12 OF AGE (STUDY DURATION: 10 MO), Tumor Site: Type of Lesion: LIVER: HEPATOMA) turn out when Cc1c2ccccc2c(CO)c2ccc3ccccc3c12 was run?
**A.** The carcinogen call was “active; positive”.

**Q.** And the carcinogen call (Species: MOUSE, Strain/Sex: B6C3F1/MALE, Route: INTRAPERITONEAL, Dose: 0, 0.0025 UMOL/G IN 10 µL TRIOCTANOIN ON D 12, 16, 20 AND 24 OF AGE (STUDY DURATION: 12 MO), Tumor Site: Type of Lesion: LIVER: HEPATOMA)?
**A.** Its carcinogen call is “active; positive”.

**Q.** And the carcinogen call (Species: MOUSE, Strain/Sex: B6C3F1/MALE, Route: INTRAPERITONEAL, Dose: 0, 0.0075, 0.015, 0.03 UMOL/G IN 10 µL/G TRIOCTANOIN ONCE ON D 12 OF AGE (STUDY DURATION: 10 MO), Dose: 0, 0.0075, 0.015, 0.03 UMOL/G IN 10 µL/G TRIOCTANOIN ONCE ON D 12 OF AGE (STUDY DURATION: 10 MO), Tumor Site: Type of Lesion: LIVER: HEPATOMA)?
**A.** Its carcinogen call is “active; positive”.

**Q.** What about the carcinogen call (Species: MOUSE, Strain/Sex: B6C3F1/MALE, Route: INTRAPERITONEAL, Dose: 0, 0.01, 0.03, 0.06, UMOL/G IN 5 µL/G DMSO ONCE ON D 12 AGE (STUDY DURATION: 10 MO), Dose: 0, 0.01, 0.03, 0.06, UMOL/G IN 5 µL/G DMSO ONCE ON D 12 AGE (STUDY DURATION: 10 MO), Tumor Site: Type of Lesion: LIVER: HEPATOMA) of the same molecule?
**A.** Its carcinogen call is “active; positive”.

**Q.** And the carcinogen call (Species: MOUSE, Strain/Sex: B6C3F1/MALE, Route: INTRAPERITONEAL, Dose: 0, 0.03, 0.08, 0.25 UMOL/G IN 10 µL/G TRIOCTANOIN ONCE AT 12 D OF AGE (STUDY DURATION: 8.5 MO), Dose: 0, 0.03, 0.08, 0.25 UMOL/G IN 10 µL/G TRIOCTANOIN ONCE AT 12 D OF AGE (STUDY DURATION: 8.5 MO), Tumor Site: Type of Lesion: LIVER: HEPATOMA)?
**A.** Its carcinogen call is “active; positive”.

**Q.** And the carcinogen call (Species: MOUSE, Strain/Sex: STRAIN-A/FEMALE, Route: INTRAPERITONEAL, Dose: 0, 0.01, 0.03, 0.06 UMOL/G IN 5 µL DMSO/G ONCE AT 4-6 WK OF AGE (STUDY DURATION: 6 MO), Dose: 0, 0.01, 0.03, 0.06 UMOL/G IN 5 µL DMSO/G ONCE AT 4-6 WK OF AGE (STUDY DURATION: 6 MO), Tumor Site: Type of Lesion: LUNG: ADENOMA)?
**A.** Its carcinogen call is “active; positive”.

**Q.** And the carcinogen call (Species: RAT, Strain/Sex: SPRAGUE-DAWLEY/FEMALE, Route: SUBCUTANEOUS, Dose: 0, 0.2 UMOL 3/WK FOR 20 DOSES (STUDY DURATION: 52 WK), Tumor Site: Type of Lesion: INJECTION SITE: SARCOMA)?
**A.** The carcinogen call was “active; positive”.

**Q.** And the carcinogen call (Species: RAT, Strain/Sex: SPRAGUE-DAWLEY/FEMALE, Route: SUBCUTANEOUS, Dose: 0, 2 UMOL IN 0.25 ML TRIOCTANOIN INTO LEFT HIND LEG AT ABOUT 40 D OF AGE FOLLOWED BY A SECOND DOSE 6 D LATER (STUDY DURA)?
**A.** Its carcinogen call is “inactive; negative”.

**Q.** And the carcinogen call (Species: RAT, Strain/Sex: SPRAGUE-DAWLEY/FEMALE, Route: SUBCUTANEOUS, Dose: 0, 2 UMOL IN 0.25 ML TRIOCTANOIN ONCE INTO LEFT HIND LEG AT ABOUT 40 D OF AGE (STUDY DURATION: 16 MO))?
**A.** Its carcinogen call is “inactive; negative”.

**Q.** What does the source list for C/C=C(/C)C(=O)O[C@H]1CCN2CC=C(COC(=O)[C@@](O)([C@H](C)OC)C(C)(C)O)[C@H]12?
**A.** carcinogen call (Species: RAT, Route: INTRAPERITONEAL, Tumor Site: Type of Lesion: INTESTINES, LIVER, INTEGUMENTARY SYSTEM (SKIN), Tumor Site: Type of Lesion: INTESTINES, LIVER, INTEGUMENTARY SYSTEM (SKIN)): active; positive; carcinogen call (Species: RAT, Strain/Sex: F344/FEMALE, Route: ORAL, Dose: 0, 7, 15, 30 PPM IN DIET, Dose: 0, 7, 15, 30 PPM IN DIET, Tumor Site: Type of Lesion: LIVER: HEPATOCELLULAR CARCINOMA OR ADENOMA (NOS), ANGIOSARCOMA, HEMATOPOIETIC SYSTEM (LEUKEMIA), LYMPHATIC SYSTEM: LYMPH, Tumor Site: Type of Lesion: LIVER: HEPATOCELLULAR CARCINOMA OR ADENOMA (NOS), ANGIOSARCOMA, HEMATOPOIETIC SYSTEM (LEUKEMIA), LYMPHATIC SYSTEM: LYMPH): active; positive; carcinogen call (Species: RAT, Strain/Sex: F344/MALE, Route: ORAL, Dose: 0, 7, 15, 30 PPM IN DIET, Dose: 0, 7, 15, 30 PPM IN DIET, Tumor Site: Type of Lesion: LIVER: HEPATOCELLULAR CARCINOMA OR ADENOMA (NOS), ANGIOSARCOMA): active; positive

**Q.** For CC(C)CCC[C@@H](C)[C@H]1CC[C@H]2[C@@H]3CC=C4C[C@@H](OC(=O)Cc5ccc(N(CCCl)CCCl)cc5)CC[C@]4(C)[C@H]3CC[C@]12C, which carcinogen call (Species: MOUSE, Strain/Sex: B6C3F1/FEMALE, Route: GAVAGE, Dose: 0, 7, 15, 30 MG/KG 3/WK FOR 52-88 WK (STUDY DURATION: 62-104 WK), Dose: 0, 7, 15, 30 MG/KG 3/WK FOR 52-88 WK (STUDY DURATION: 62-104 WK), Tumor Site: Type of Lesion: LUNG: ALVEOLAR/BRONCHIOLAR ADENOMA, CARCINOMA, MYOCARDIUM: SARCOMA, OVARIES: TUBULAR ADENOMA, HEMATOPOIETIC SYSTEM (LEUK, Tumor Site: Type of Lesion: LUNG: ALVEOLAR/BRONCHIOLAR ADENOMA, CARCINOMA, MYOCARDIUM: SARCOMA, OVARIES: TUBULAR ADENOMA, HEMATOPOIETIC SYSTEM (LEUK) is on record?
**A.** The carcinogen call was “active; positive”.

**Q.** What about the carcinogen call (Species: MOUSE, Strain/Sex: B6C3F1/MALE, Route: GAVAGE, Dose: 0, 7, 15, 30 MG/KG 3/WK FOR 52-102 WK (STUDY DURATION: 74-104 WK), Dose: 0, 7, 15, 30 MG/KG 3/WK FOR 52-102 WK (STUDY DURATION: 74-104 WK), Tumor Site: Type of Lesion: LUNG: ALVEOLAR/BRONCHIOLAR ADENOMA, CARCINOMA, HEMATOPOIETIC SYSTEM (LEUKEMIA), LYMPHATIC SYSTEM: LYMPHOMA, MYOCARDIUM:, Tumor Site: Type of Lesion: LUNG: ALVEOLAR/BRONCHIOLAR ADENOMA, CARCINOMA, HEMATOPOIETIC SYSTEM (LEUKEMIA), LYMPHATIC SYSTEM: LYMPHOMA, MYOCARDIUM:) of the same molecule?
**A.** Its carcinogen call is “active; positive”.

**Q.** And the carcinogen call (Species: RAT, Strain/Sex: SPRAGUE-DAWLEY/FEMALE, Route: GAVAGE, Dose: 0, 5, 10 MG/KG 3/WK FOR 52 WKS (STUDY DURATION: 84-85 WK), Dose: 0, 5, 10 MG/KG 3/WK FOR 52 WKS (STUDY DURATION: 84-85 WK), Tumor Site: Type of Lesion: MAMMARY GLAND: ADENOCARCINOMA, FIBROADENOMA)?
**A.** The carcinogen call was “active; positive”.

**Q.** And the carcinogen call (Species: RAT, Strain/Sex: SPRAGUE-DAWLEY/MALE, Route: GAVAGE, Dose: 0, 5, 10 MG/KG 3/WK FOR 52 WK (STUDY DURATION: 84-85 WK), Dose: 0, 5, 10 MG/KG 3/WK FOR 52 WK (STUDY DURATION: 84-85 WK))?
**A.** The carcinogen call was “inactive; negative”.

**Q.** Which carcinogen call (Species: RAT, Strain/Sex: F344/FEMALE, Route: GAVAGE, Dose: 0, 20, 40 UMOL/WK IN CORN OIL/ETHYL ACETATE (2: 1) FOR 30 WK (LOW DOSE) OR 22.5 WK (HIGH DOSE) FOR TOTAL DOSES OF 0, 0.6, Dose: 0, 20, 40 UMOL/WK IN CORN OIL/ETHYL ACETATE (2: 1) FOR 30 WK (LOW DOSE) OR 22.5 WK (HIGH DOSE) FOR TOTAL DOSES OF 0, 0.6, Tumor Site: Type of Lesion: MAMMARY GLAND: TUMOR) does the source give for CCNC(=O)N(CC)N=O here?
**A.** The carcinogen call was “active; positive”.

**Q.** And the carcinogen call (Species: RAT, Strain/Sex: F344/FEMALE, Route: INTRAVESICULAR, Dose: 0, 3 MG 2/WK FOR 30 WK (STUDY DURATION: LIFETIME), Tumor Site: Type of Lesion: MAMMARY GLAND: TUMOR, LUNG: TUMOR, ZYMBAL GLAND: TUMOR, Tumor Site: Type of Lesion: MAMMARY GLAND: TUMOR, LUNG: TUMOR, ZYMBAL GLAND: TUMOR)?
**A.** Its carcinogen call is “active; positive”.

**Q.** What about the carcinogen call (Species: RAT, Strain/Sex: F344/FEMALE, Route: ORAL, Dose: 0, 20, 40 UMOL/WK IN DRINKING WATER FOR 30 WK FOR TOTAL DOSES OF 0, 0.6, 1.2 MMOL (STUDY DURATION: LIFETIME), Dose: 0, 20, 40 UMOL/WK IN DRINKING WATER FOR 30 WK FOR TOTAL DOSES OF 0, 0.6, 1.2 MMOL (STUDY DURATION: LIFETIME), Tumor Site: Type of Lesion: LUNG: TUMOR, MAMMARY GLAND: TUMOR, UTERUS: TUMOR, Tumor Site: Type of Lesion: LUNG: TUMOR, MAMMARY GLAND: TUMOR, UTERUS: TUMOR) of the same molecule?
**A.** Its carcinogen call is “active; positive”.

**Q.** And the carcinogen call (Species: RAT, Strain/Sex: F344/MALE, Route: GAVAGE, Dose: 0, 20, 40 UMOL/WK IN CORN OIL/ETHYL ACETATE (2: 1) FOR 30 WK FOR TOTAL DOSES OF 0, 0.6, 1.2 MMOL (STUDY DURATION: LIFETI, Dose: 0, 20, 40 UMOL/WK IN CORN OIL/ETHYL ACETATE (2: 1) FOR 30 WK FOR TOTAL DOSES OF 0, 0.6, 1.2 MMOL (STUDY DURATION: LIFETI, Tumor Site: Type of Lesion: LUNG: TUMOR, TESTIS: MESOTHELIOMA, NERVOUS SYSTEM: TUMOR, ZYMBAL GLAND: TUMOR, COLON: TUMOR, Tumor Site: Type of Lesion: LUNG: TUMOR, TESTIS: MESOTHELIOMA, NERVOUS SYSTEM: TUMOR, ZYMBAL GLAND: TUMOR, COLON: TUMOR)?
**A.** Its carcinogen call is “active; positive”.

**Q.** And the carcinogen call (Species: RAT, Strain/Sex: F344/MALE, Route: ORAL, Dose: 0, 20, 40 UMOL/WK IN DRINKING WATER FOR 30 WK FOR TOTAL DOSES OF 0, 0.6, 1.2 MMOL (STUDY DURATION: LIFETIME), Dose: 0, 20, 40 UMOL/WK IN DRINKING WATER FOR 30 WK FOR TOTAL DOSES OF 0, 0.6, 1.2 MMOL (STUDY DURATION: LIFETIME), Tumor Site: Type of Lesion: LUNG: TUMOR, TESTIS: MESOTHELIOMA, COLON: TUMOR, SKIN: TUMOR, Tumor Site: Type of Lesion: LUNG: TUMOR, TESTIS: MESOTHELIOMA, COLON: TUMOR, SKIN: TUMOR)?
**A.** Its carcinogen call is “active; positive”.
